According to ChEMBL document CHEMBL2375306, “Antimicrobial peptides containing unnatural amino acid exhibit potent bactericidal activity against ESKAPE pathogens” (Bioorg Med Chem, 2013):
In brackets after ≈: the same amount, converted by molar mass. Square brackets hold non-standard residues; d marks the D form. Peptide text beside a SMILES is read from it. ξ: configuration not given here. Pro(3ξ,4ξ-(CH2)4) = O=C(O)[C@H]1NCC2CCCCC21; Tic = O=C(O)[C@@H]1Cc2ccccc2CN1; Dab = NCC[C@H](N)C(=O)O; βAla = NCCC(=O)O

Assays:
NHDF [1] = assay: Cytotoxicity against NHDF at 50 ug/ml after 6 hrs by MTT assay; assay type: cell-based; details: human
Staphylococcus aureus [2] = assay: Antibacterial activity against community-associated methicillin-resistant Staphylococcus aureus USA300 after 24 hrs by broth microdilution method; assay type: functional; details: USA300, 24 h
NHDF [3] = assay: Cytotoxicity against NHDF at >50 ug/ml after 6 hrs by MTT assay; assay type: cell-based; details: human
NHDF [4] = assay: Cytotoxicity against NHDF at >50 ug/ml after 6 hrs by LDH assay; assay type: cell-based; details: human
NHDF [5] = assay: Cytotoxicity against NHDF at 50 ug/ml after 6 hrs by LDH assay; assay type: cell-based; details: human
Acinetobacter baumannii = assay: Antibacterial activity against Acinetobacter baumannii WRAIR clinical isolate 13 after 24 hrs by broth microdilution method; assay type: functional; details: WRAIR clinical isolate 13, 24 h
Enterococcus faecium = assay: Antibacterial activity against Enterococcus faecium MMC4 after 24 hrs by broth microdilution method; assay type: functional; details: MMC4, 24 h
Pseudomonas aeruginosa = assay: Antibacterial activity against Pseudomonas aeruginosa PAO1 after 24 hrs by broth microdilution method; assay type: functional; details: PAO1, 24 h
Klebsiella aerogenes = assay: Antibacterial activity against Enterobacter aerogenes after 24 hrs by broth microdilution method; assay type: functional
Klebsiella pneumoniae = assay: Antibacterial activity against Klebsiella pneumoniae BAMS clinical isolate 07-18 after 24 hrs by broth microdilution method; assay type: functional; details: BAMS clinical isolate 07-18, 24 h
Staphylococcus aureus [6] = assay: Antibacterial activity against methicillin-sensitive Staphylococcus aureus UAMS-1 after 24 hrs by broth microdilution method; assay type: functional; details: UAMS-1, 24 h

Compound | Activity (NHDF [1]) | MIC (Staphylococcus aureus [2]) | Activity (NHDF [3]) | Activity (NHDF [4]) | Activity (NHDF [5]) | MBC (Acinetobacter baumannii) | MIC (Acinetobacter baumannii) | MBC (Enterococcus faecium) | MIC (Enterococcus faecium) | MBC (Pseudomonas aeruginosa) | MIC (Pseudomonas aeruginosa) | MBC (Klebsiella aerogenes) | MIC (Klebsiella aerogenes) | MBC (Klebsiella pneumoniae) | MIC (Klebsiella pneumoniae) | MBC (Staphylococcus aureus [6]) | MIC (Staphylococcus aureus [6])
CC(=O)NCC(=O)N[C@@H](Cc1ccccc1)C(=O)N1Cc2ccccc2C[C@H]1C(=O)N1CC2CCCCC2[C@H]1C(=O)NCC(=O)N[C@@H](CCN)C(=O)N1Cc2ccccc2C[C@H]1C(=O)N1CC2CCCCC2[C@H]1C(=O)NCC(=O)N[C@@H](Cc1ccccc1)C(=O)N1Cc2ccccc2C[C@H]1C(=O)N1CC2CCCCC2[C@H]1C(=O)NCC(=O)N[C@@H](CCN)C(=O)N1Cc2ccccc2C[C@H]1C(=O)N[C@@H](CCN)C(=O)N[C@@H](CCN)C(=O)N[C@@H](CCN)C(=O)N[C@@H](CCN)C(N)=O (stereo partly specified) (Ac-GF[Tic][Pro(3ξ,4ξ-(CH2)4)]G[Dab][Tic][Pro(3ξ,4ξ-(CH2)4)]GF[Tic][Pro(3ξ,4ξ-(CH2)4)]G[Dab][Tic][Dab][Dab][Dab][Dab]-NH2) | Non-toxic | 25 µg/mL (≈ 11 µM) | Toxic | Toxic | Non-toxic | 12.5 µg/mL (≈ 5.5 µM) | 6.25 µg/mL (≈ 2.75 µM) | 50 µg/mL (≈ 22 µM) | 6.25 µg/mL (≈ 2.75 µM) | 25 µg/mL (≈ 11 µM) | 12.5 µg/mL (≈ 5.5 µM) | 25 µg/mL (≈ 11 µM) | 25 µg/mL (≈ 11 µM) | 12.5 µg/mL (≈ 5.5 µM) | 12.5 µg/mL (≈ 5.5 µM) | 50 µg/mL (≈ 22 µM) | 50 µg/mL (≈ 22 µM)
CC(C)C[C@H](NC(=O)[C@@H](N)CCCCN)C(=O)N1Cc2ccccc2C[C@H]1C(=O)N1CC2CCCCC2[C@H]1C(=O)N[C@@H](CCCCN)C(=O)NCC(=O)N1Cc2ccccc2C[C@H]1C(=O)N1CC2CCCCC2[C@H]1C(=O)N[C@@H](Cc1ccccc1)C(=O)NCC(=O)N1Cc2ccccc2C[C@H]1C(=O)N1CC2CCCCC2[C@H]1C(=O)N[C@@H](CCCCN)C(=O)NCC(=O)N1Cc2ccccc2C[C@H]1C(=O)N1CC2CCCCC2[C@H]1C(=O)N[C@@H](Cc1ccccc1)C(=O)NCC(=O)N1Cc2ccccc2C[C@H]1C(=O)N1CC2CCCCC2[C@H]1C(=O)N[C@@H](CCCCN)C(=O)NCC(=O)N1Cc2ccccc2C[C@H]1C(=O)N1CC2CCCCC2[C@H]1C(=O)N[C@@H](CCCCN)C(=O)N[C@@H](CCCCN)C(=O)N[C@@H](CCCCN)C(=O)N[C@@H](CCCCN)C(N)=O (stereo partly specified) (H-KL[Tic][Pro(3ξ,4ξ-(CH2)4)]KG[Tic][Pro(3ξ,4ξ-(CH2)4)]FG[Tic][Pro(3ξ,4ξ-(CH2)4)]KG[Tic][Pro(3ξ,4ξ-(CH2)4)]FG[Tic][Pro(3ξ,4ξ-(CH2)4)]KG[Tic][Pro(3ξ,4ξ-(CH2)4)]KKKK-NH2) | Non-toxic |  | Toxic | Toxic | Non-toxic | 25 µg/mL (≈ 6.95 µM) | 12.5 µg/mL (≈ 3.47 µM) | 25 µg/mL (≈ 6.95 µM) | 6.25 µg/mL (≈ 1.74 µM) | 50 µg/mL (≈ 13.9 µM) | 50 µg/mL (≈ 13.9 µM) | 50 µg/mL (≈ 13.9 µM) | 50 µg/mL (≈ 13.9 µM) | 50 µg/mL (≈ 13.9 µM) | 50 µg/mL (≈ 13.9 µM) | 50 µg/mL (≈ 13.9 µM) | 12.5 µg/mL (≈ 3.47 µM)
CC(=O)NCC(=O)N[C@@H](CC(=O)O)C(=O)N[C@@H](Cc1ccccc1)C(=O)N1Cc2ccccc2C[C@H]1C(=O)N1CC2CCCCC2[C@H]1C(=O)NCC(=O)N[C@@H](CCCCN)C(=O)N1Cc2ccccc2C[C@H]1C(=O)N1CC2CCCCC2[C@H]1C(=O)NCC(=O)N[C@@H](CC(=O)O)C(=O)N[C@@H](Cc1ccccc1)C(=O)N1Cc2ccccc2C[C@H]1C(=O)N1CC2CCCCC2[C@H]1C(=O)NCC(=O)N[C@@H](CCCCN)C(=O)N1Cc2ccccc2C[C@H]1C(=O)N[C@@H](CCCCN)C(=O)N[C@@H](CCCCN)C(=O)N[C@@H](CCCCN)C(=O)N[C@@H](CCCCN)C(N)=O (stereo partly specified) (Ac-GDF[Tic][Pro(3ξ,4ξ-(CH2)4)]GK[Tic][Pro(3ξ,4ξ-(CH2)4)]GDF[Tic][Pro(3ξ,4ξ-(CH2)4)]GK[Tic]KKKK-NH2) |  |  |  |  |  | 12.5 µg/mL (≈ 4.68 µM) | 12.5 µg/mL (≈ 4.68 µM) | 50 µg/mL (≈ 18.7 µM) | 12.5 µg/mL (≈ 4.68 µM) | 50 µg/mL (≈ 18.7 µM) | 50 µg/mL (≈ 18.7 µM) | 100 µg/mL (≈ 37.4 µM) | 100 µg/mL (≈ 37.4 µM) | 100 µg/mL (≈ 37.4 µM) | 50 µg/mL (≈ 18.7 µM) | 100 µg/mL (≈ 37.4 µM) | 100 µg/mL (≈ 37.4 µM)
CC(=O)NCC(=O)N[C@@H](Cc1ccccc1)C(=O)N1Cc2ccccc2C[C@H]1C(=O)N1CC2CCCCC2[C@H]1C(=O)NCC(=O)N[C@@H](CCCNC(=N)N)C(=O)N1Cc2ccccc2C[C@H]1C(=O)N1CC2CCCCC2[C@H]1C(=O)NCC(=O)N[C@@H](Cc1ccccc1)C(=O)N1Cc2ccccc2C[C@H]1C(=O)N1CC2CCCCC2[C@H]1C(=O)NCC(=O)N[C@@H](CCCNC(=N)N)C(=O)N1Cc2ccccc2C[C@H]1C(=O)N[C@@H](CCCNC(=N)N)C(=O)N[C@@H](CCCNC(=N)N)C(=O)N[C@@H](CCCNC(=N)N)C(=O)N[C@@H](CCCNC(=N)N)C(N)=O (stereo partly specified) (Ac-GF[Tic][Pro(3ξ,4ξ-(CH2)4)]GR[Tic][Pro(3ξ,4ξ-(CH2)4)]GF[Tic][Pro(3ξ,4ξ-(CH2)4)]GR[Tic]RRRR-NH2) |  |  |  |  |  | 12.5 µg/mL (≈ 4.79 µM) | 6.25 µg/mL (≈ 2.4 µM) | 25 µg/mL (≈ 9.58 µM) | 6.25 µg/mL (≈ 2.4 µM) | > 100 µg/mL | 100 µg/mL (≈ 38.3 µM) | 50 µg/mL (≈ 19.2 µM) | 50 µg/mL (≈ 19.2 µM) | 100 µg/mL (≈ 38.3 µM) | 50 µg/mL (≈ 19.2 µM) | > 100 µg/mL | 50 µg/mL (≈ 19.2 µM)
CC(C)C[C@H](NC(=O)[C@@H](N)CCCCN)C(=O)N1Cc2ccccc2C[C@H]1C(=O)N1CC2CCCCC2[C@H]1C(=O)N[C@@H](CCCCN)C(=O)N1Cc2ccccc2C[C@H]1C(=O)N1CC2CCCCC2[C@H]1C(=O)N[C@@H](Cc1ccccc1)C(=O)N1Cc2ccccc2C[C@H]1C(=O)N1CC2CCCCC2[C@H]1C(=O)N[C@@H](CCCCN)C(=O)N1Cc2ccccc2C[C@H]1C(=O)N1CC2CCCCC2[C@H]1C(=O)N[C@@H](Cc1ccccc1)C(=O)N1Cc2ccccc2C[C@H]1C(=O)N1CC2CCCCC2[C@H]1C(=O)N[C@@H](CCCCN)C(=O)N1Cc2ccccc2C[C@H]1C(=O)N1CC2CCCCC2[C@H]1C(=O)N[C@@H](CCCCN)C(=O)N[C@@H](CCCNC(=N)N)C(N)=O (stereo partly specified) (H-KL[Tic][Pro(3ξ,4ξ-(CH2)4)]K[Tic][Pro(3ξ,4ξ-(CH2)4)]F[Tic][Pro(3ξ,4ξ-(CH2)4)]K[Tic][Pro(3ξ,4ξ-(CH2)4)]F[Tic][Pro(3ξ,4ξ-(CH2)4)]K[Tic][Pro(3ξ,4ξ-(CH2)4)]KR-NH2) |  |  |  |  |  | > 100 µg/mL | 100 µg/mL (≈ 32.4 µM) | 25 µg/mL (≈ 8.11 µM) | 12.5 µg/mL (≈ 4.05 µM) | > 100 µg/mL | > 100 µg/mL | > 100 µg/mL | > 100 µg/mL | > 100 µg/mL | > 100 µg/mL | 50 µg/mL (≈ 16.2 µM) | 50 µg/mL (≈ 16.2 µM)
CC(C)C[C@H](NC(=O)[C@@H](N)CCCCN)C(=O)N1Cc2ccccc2C[C@H]1C(=O)N1CC2CCCCC2[C@H]1C(=O)NCC(=O)N[C@@H](CCCCN)C(=O)N1Cc2ccccc2C[C@H]1C(=O)N1CC2CCCCC2[C@H]1C(=O)NCCC(=O)N[C@@H](Cc1ccccc1)C(=O)N1Cc2ccccc2C[C@H]1C(=O)N1CC2CCCCC2[C@H]1C(=O)NCC(=O)N[C@@H](CCCCN)C(=O)N1Cc2ccccc2C[C@H]1C(=O)N1CC2CCCCC2[C@H]1C(=O)NCCC(=O)N[C@@H](Cc1ccccc1)C(=O)N1Cc2ccccc2C[C@H]1C(=O)N1CC2CCCCC2[C@H]1C(=O)NCC(=O)N[C@@H](CCCCN)C(=O)N1Cc2ccccc2C[C@H]1C(=O)N1CC2CCCCC2[C@H]1C(=O)N[C@@H](CCCCN)C(=O)N[C@@H](CCCCN)C(=O)N[C@@H](CCCCN)C(=O)N[C@@H](CCCCN)C(N)=O (stereo partly specified) (H-KL[Tic][Pro(3ξ,4ξ-(CH2)4)]GK[Tic][Pro(3ξ,4ξ-(CH2)4)][βAla]F[Tic][Pro(3ξ,4ξ-(CH2)4)]GK[Tic][Pro(3ξ,4ξ-(CH2)4)][βAla]F[Tic][Pro(3ξ,4ξ-(CH2)4)]GK[Tic][Pro(3ξ,4ξ-(CH2)4)]KKKK-NH2) |  |  |  |  |  | 25 µg/mL (≈ 6.9 µM) | 6.25 µg/mL (≈ 1.72 µM) | 25 µg/mL (≈ 6.9 µM) | 6.25 µg/mL (≈ 1.72 µM) | 50 µg/mL (≈ 13.8 µM) | 25 µg/mL (≈ 6.9 µM) | 100 µg/mL (≈ 27.6 µM) | 50 µg/mL (≈ 13.8 µM) | 50 µg/mL (≈ 13.8 µM) | 50 µg/mL (≈ 13.8 µM) | 50 µg/mL (≈ 13.8 µM) | 50 µg/mL (≈ 13.8 µM)
